From EP3565534B1, “POLYMERIC NANOPARTICLES ENCAPSULATING A COMBINATION OF NATURAL BIO-ACTIVES TRANS-RESVERATROL(RSV) AND CELASTROL(CL), A PROCESS FOR THE PREPARATION AND USE THEREOF IN THE TREATMENT OF PROSTATE CANCER” (Università degli Studi di Sassari, priority 2017, dated 2018)
Like-named read-outs stand apart in the source and are kept apart here.

Legend:
[1] = cited from earlier work
[2] = test system: prostate cancer cell lines (C-42, DU-145, and PC-3 cells); assay: MTT assay, antiproliferative efficacy, results stated for all three cell lines together; assay type: cell-based; settings: 72 hours; non-encapsulated, alone; RSV 20, 30, 40 µM; CL 0.250, 0.375, 0.5 µM
Procedure: Finally, in vitro cytotoxicity studies were performed in order to evaluate whether co-administration of encapsulated RSV and CL would have allowed an increase in the antiproliferative efficacy compared to single molecules, both as such and formulated in nanosystems, on androgen-dependent (C-42 cells) and androgen-independent (DU-145 and PC-3 cells) prostate cancer cell lines (PCa).
The antiproliferative efficacy of the NPs of the present invention was evaluated using the MTT assay (3-[4,5-dimethylthiazol-2-yl]-2,5-diphenyl tetrazolium bromide) applying the procedure described in Sanna V., et al., Resveratrol-loaded nanoparticles based on poly(epsilon-caprolactone) and poly(D,L-lactic-co-glycolic acid)-poly(ethylene glycol) blend for prostate cancer treatment. Mol. Pharm. 2013 Oct 7;10(10):3871-81, which, as a result, is included herein as a reference in its entirety.
Each experiment was repeated 3 or 5 times (n = 3 or 5).

Compound: Oc1ccc(/C=C/c2cc(O)cc(O)c2)cc1 [RSV, trans-3,5,4'-trihydroxy-stilbene]
- solubility in water [1]: 3 mg/100 mL
- viability [2]: reduction of viability that is generally dose-dependent

Compound: CC1=C(O)C(=O)C=C2C1=CC=C1[C@@]2(C)CC[C@@]2(C)[C@@H]3C[C@](C)(C(=O)O)CC[C@]3(C)CC[C@]12C [CL, Celastrol]
- solubility in water ([1]; result in words): insoluble
